Laboratory results as given in ChEMBL document CHEMBL1201862, “PubChem BioAssay data set” (2004).
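Dose response: 5 concentrations. Exposure: 48 h. Format: 96-well plates. Endpoint: linear interpolation; highest concentration if not reached. The concentration for 50% growth inhibition is given as GI50.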 Calls of active or inactive are those of the source. Rule as the data show it: active = GI50 up to about 1.1 µM and inactive = higher.

Tests used:
Test in all cases: DTP human tumour cell line panel, 48 h
786-0 = tested on: 786-0
A549 = tested on: A549
ACHN = tested on: ACHN
CAKI-1 = tested on: CAKI-1
CCRF-CEM = tested on: CCRF-CEM
COLO 205 = tested on: COLO 205
DLD-1 = tested on: DLD-1
DMS-114 = tested on: DMS-114
DMS-273 = tested on: DMS-273
EKVX = tested on: EKVX
HCC 2998 = tested on: HCC 2998
HCT-15 = tested on: HCT-15
HL-60 = tested on: HL-60
HOP-62 = tested on: HOP-62
HOP-92 = tested on: HOP-92
IGROV-1 = tested on: IGROV-1
K562 = tested on: K562
KM-20L2 = tested on: KM-20L2
KM12 = tested on: KM12
LOX IMVI = tested on: LOX IMVI
LXFL 529 = tested on: LXFL 529
M14 = tested on: M14
M19-MEL = tested on: M19-MEL
MOLT-4 = tested on: MOLT-4
Malme-3M = tested on: Malme-3M
NCI-H23 = tested on: NCI-H23
NCI-H460 = tested on: NCI-H460
NCI-H522 = tested on: NCI-H522
OVCAR-3 = tested on: OVCAR-3
OVCAR-4 = tested on: OVCAR-4
OVCAR-5 = tested on: OVCAR-5
OVCAR-8 = tested on: OVCAR-8
RPMI-8226 = tested on: RPMI-8226
RXF 393 = tested on: RXF 393
RXF 631 = tested on: RXF 631
SF-268 = tested on: SF-268
SF-295 = tested on: SF-295
SK-MEL-28 = tested on: SK-MEL-28
SK-MEL-2 = tested on: SK-MEL-2
SK-MEL-5 = tested on: SK-MEL-5
SK-OV-3 = tested on: SK-OV-3
SN12C = tested on: SN12C
SNB-19 = tested on: SNB-19
SNB-75 = tested on: SNB-75
SNB-78 = tested on: SNB-78
SW-620 = tested on: SW-620
TK-10 = tested on: TK-10
UACC-257 = tested on: UACC-257
UACC-62 = tested on: UACC-62
UO-31 = tested on: UO-31
XF498 = tested on: XF498
A498 = tested on: A498
DU-145 = tested on: DU-145
HCT-116 = tested on: HCT-116
HOP-18 = tested on: HOP-18
HT-29 = tested on: HT-29
Hs-578T = tested on: Hs-578T
MCF7 = tested on: MCF7
MDA-MB-231 = tested on: MDA-MB-231
MDA-MB-435 = tested on: MDA-MB-435
MDA-N = tested on: MDA-N
NCI-H226 = tested on: NCI-H226
NCI/ADR-RES = tested on: NCI/ADR-RES
PC-3 = tested on: PC-3
SF-539 = tested on: SF-539
SR = tested on: SR
T47D = tested on: T47D
U-251 = tested on: U-251

Measured: GI50

CN(C)c1ccc2c(=O)c3ccccc3oc2n1
> 100 µM: HCT-15
inactive: 786-0 > 100 µM | A549 > 100 µM | ACHN 42 µM | CAKI-1 > 100 µM | CCRF-CEM > 100 µM | COLO 205 > 100 µM | DLD-1 73.5 µM | DMS-114 82.2 µM | DMS-273 > 100 µM | EKVX 35 µM | HCC 2998 > 100 µM | HL-60 > 100 µM | HOP-62 56.6 µM | HOP-92 > 100 µM | IGROV-1 93.1 µM | K562 > 100 µM | KM-20L2 > 100 µM | KM12 69.7 µM | LOX IMVI > 100 µM | LXFL 529 84.3 µM | M14 > 100 µM | M19-MEL > 100 µM | MOLT-4 > 100 µM | Malme-3M > 100 µM | NCI-H23 > 100 µM | NCI-H460 > 100 µM | NCI-H522 > 100 µM | OVCAR-3 91.6 µM | OVCAR-4 > 100 µM | OVCAR-5 > 100 µM | OVCAR-8 > 100 µM | RPMI-8226 > 100 µM | RXF 393 > 100 µM | RXF 631 > 100 µM | SF-268 > 100 µM | SF-295 > 100 µM | SK-MEL-28 > 100 µM | SK-MEL-2 > 100 µM | SK-MEL-5 38.6 µM | SK-OV-3 > 100 µM | SN12C > 100 µM | SNB-19 > 100 µM | SNB-75 > 100 µM | SNB-78 > 100 µM | SW-620 > 100 µM | TK-10 > 100 µM | UACC-257 > 100 µM | UACC-62 > 100 µM | UO-31 69.2 µM | XF498 > 100 µM

COc1ccc(NC(=O)CC(=O)n2nc(-c3ccccc3)c(/N=N/c3ccccc3C)c2-c2ccccc2)cc1
inactive: 786-0 18.5 µM | A498 21.5 µM | A549 23.6 µM | ACHN 26.1 µM | CAKI-1 17.3 µM | CCRF-CEM > 61.9 µM | COLO 205 > 61.7 µM | DLD-1 21.6 µM | DMS-114 24.3 µM | DMS-273 16.5 µM | DU-145 45.8 µM | EKVX 16.3 µM | HCC 2998 > 78.7 µM | HCT-116 20.5 µM | HL-60 54.6 µM | HOP-18 42.5 µM | HOP-62 15.9 µM | HOP-92 15.6 µM | HT-29 44.9 µM | Hs-578T 14.3 µM | IGROV-1 21.4 µM | K562 > 79.8 µM | KM-20L2 > 100 µM | KM12 53.3 µM | LOX IMVI 41 µM | LXFL 529 40 µM | M14 40.9 µM | M19-MEL 51.8 µM | MCF7 35.3 µM | MDA-MB-231 71 µM | MDA-MB-435 > 100 µM | MDA-N > 100 µM | MOLT-4 > 64.1 µM | Malme-3M 24.3 µM | NCI-H226 26 µM | NCI-H23 22.1 µM | NCI-H460 22.4 µM | NCI-H522 23.6 µM | NCI/ADR-RES 29.6 µM | OVCAR-3 17.3 µM | OVCAR-4 23.9 µM | OVCAR-5 > 100 µM | OVCAR-8 28 µM | PC-3 17.1 µM | RPMI-8226 > 58.5 µM | RXF 393 17.3 µM | RXF 631 33.7 µM | SF-268 17.9 µM | SF-295 23.3 µM | SF-539 15.1 µM | SK-MEL-28 > 41.7 µM | SK-MEL-2 18.2 µM | SK-MEL-5 40.2 µM | SK-OV-3 19.9 µM | SN12C 53.6 µM | SNB-19 25.2 µM | SNB-75 18.7 µM | SR 35.9 µM | SW-620 35.4 µM | T47D 22.7 µM | TK-10 24.7 µM | U-251 16.4 µM | UACC-257 64.1 µM | UACC-62 19.2 µM | UO-31 35.6 µM | XF498 19.3 µM
35.5 µM: HCT-15
